Data reported in paper PMC10451032 (ACS Central Science, 2023).

Legend:
[1] = system: rNsp5^WT recombinant SARS-CoV-2; experiment: microbe, parasite or virus in culture; assay type: cell-based; conditions: Severe acute respiratory syndrome coronavirus 2
[2] = system: triple mutant L50F/E166A/L167F; conditions: cited from earlier work
[3] = system: triple mutant L50F/E166A/L167F; conditions: cited from earlier work; remark: listed apart in the source

CC(C)(C)[C@H](NC(=O)C(F)(F)F)C(=O)N1C[C@H]2[C@@H]([C@H]1C(=O)N[C@H](C#N)C[C@@H]1CCNC1=O)C2(C)C [nirmatrelvir]
EC50 [1]: 25.5 nM | IC50 increase in the enzymatic assay [2]: 72 fold | EC50 increase in the antiviral assay [3]: 51 fold
